Data set [1] in a line: Mixing with 0.2 M phosphate buffer, light transmittance (660 nm) to evaluate insoluble salt formation. It is filed as physicochemical. Here is the method: A 100 g/L solution, in terms of free form, was prepared using the crystal of monovalent cation salt nonhydrate of HMB, obtained in each of Examples 2, 5 and 7, and mixed with 0.2 M phosphate buffer (pH: 6.80) in an arbitrary mixing ratio. The solution after mixing was measured for the light transmittance (660 nm) to evaluate the presence or absence of insoluble salt formation. In Table 13, “-” indicates unevaluated.

The format of data set [2] is physicochemical. Here is the method: The sodium HMB nonhydrate obtained in Example 2 was mixed with a glucose-amino acids-electrolytes infusion solution for peripheral vain nutrition [pH: about 6.7; Product Name: Aminofluid Infusion Solution (Otsuka Pharmaceutical Factory, Inc.)] to obtain 0, 0.11, 0.21 and 0.42 weight/volume % solutions at final concentration in terms of free form. The light transmittance (660 nm) was measured by ultraviolet and visible spectrophotometer immediately after the mixing or 24 hours after being left at room temperature to evaluate the presence or absence of insoluble salt formation.

The conditions of data set [3]: rat, in vivo. Here is the method:
The solution was continuously administered to a rat on which operative stress was incurred by intestinal tract scratch operation at a normal dose (240 mL/kg/day) for 3 days. On the final day of administration, urine was collected by 24-hour urine collection and measured for the urinary electrolyte concentration.

Data set [4] in a line: Measurement of solubility in water at room temperature (HMB concentration of supernatant by HPLC). It is filed as physicochemical. The procedure:
The crystal of monovalent cation salt nonhydrate of HMB, obtained in each of Examples 2, 5 and 7, was added at room temperature until it dissolved in water and after keeping the solution for a sufficient time under stirring, the supernatant containing no crystal was sampled and measured for the HMB concentration by using HPLC.

Data set [5] is described as follows: pH of aqueous solution of 100 g/L salt crystal in terms of free HMB. It is filed as physicochemical. Here is the method: As for pH, an aqueous solution of 100 g/L salt crystal in terms of free HMB was measured.
[6] abbreviates: mixing ratio 0.33 Vol/Vol (aqueous 100 g/L HMB solution/0.2M phosphate buffer pH 6.80).
The mark [7] stands for this setting: mixing ratio 0.57 Vol/Vol (aqueous 100 g/L HMB solution/0.2M phosphate buffer pH 6.80).
Setting [8] is: HMB final concentration 0.11 weight/volume % in Aminofluid, 0 h after addition.
Where [9] appears, read: HMB final concentration 0.11 weight/volume % in Aminofluid, 24 h after addition, room temperature.
Where [10] appears, read: HMB final concentration 0.21 weight/volume % in Aminofluid, 0 h after addition.
The mark [11] stands for this setting: HMB final concentration 0.42 weight/volume % in Aminofluid, 24 h after addition, room temperature.
The mark [12] stands for this setting: mixing ratio 0.17 Vol/Vol (aqueous 100 g/L HMB solution/0.2M phosphate buffer pH 6.80).

Like-named read-outs stand apart in the source and are kept apart here.

With `CC(C)(O)CC(=O)[O-].CC(C)(O)CC(=O)[O-].O.[Ca+2]` [Calcium HMB hydrate, reference compound], the “Transmittance T % (660 nm)” value worked out at 60% in data set [1] (mixing ratio 0.01 Vol/Vol (aqueous 100 g/L HMB solution/0.2M phosphate buffer pH 6.80)); 0.02% in data set [1] (setting [6]); 0% in data set [1] (setting [7]); 100% in data set [2] (setting [8]); 70% in data set [2] (setting [9]); 90% in data set [2] (setting [10]). Besides, in data set [2] (setting [11]), the “Transmittance T % (660 nm)” value is on record as 20%. In addition, the “Insoluble salt formation (in words)” value in data set [1] (mixing with phosphate buffer) is on record as “produces an insoluble salt”; in data set [2] it was “forms an insoluble salt”. Also, in data set [3], the “Electrolyte abnormality (in words)” value is “induces the increase in urinary calcium and the decrease in urinary phosphate excretion”.

As to `CC(C)(O)CC(=O)[O-].[Na+]` [Example 2, sodium HMB nonhydrate], the Solubility – broadly, how much of the substance goes into solution per volume – in data set [4] (in water, room temperature) worked out at 729 mg/mL. In data set [4] (in water, room temperature), the “Solubility in water compared to existing calcium salt (in words)” value is on record as “greatly enhanced in the solubility in water”. Also, in data set [4] (in water, room temperature, in terms of free HMB), the “Solubility (in terms of free form)” value was 513 mg/mL. Moreover, in data set [5], the pH was 7.9. Further, the “Transmittance T % (660 nm)” value in data set [1] (setting [12]), in data set [1] (setting [6]), in data set [1] (setting [7]), in data set [2] (setting [8]), in data set [2] (setting [9]) and in data set [2] (setting [10]) was 100% throughout. Also, the “Transmittance T % (660 nm)” value in data set [2] (HMB final concentration 0.21 weight/volume % in Aminofluid, 24 h after addition, room temperature) was 100%; in data set [2] (HMB final concentration 0.42 weight/volume % in Aminofluid, 0 h after addition) it was 100%; in data set [2] (setting [11]) it was 100%. Moreover, the “Insoluble salt formation (in words)” value is “do not form an insoluble salt” in data set [1] (mixing with phosphate buffer) and “does not form an insoluble salt” in data set [2]. Further, the “Electrolyte abnormality (in words)” value in data set [3] was “does not induce the above electrolyte abnormality”.

In the case of `CC(C)(O)CC(=O)[O-].[K+]` [Example 5, potassium HMB nonhydrate], the Solubility in data set [4] stood at 1011 mg/mL. Besides, in data set [4], the “Solubility (in terms of free form)” value came out at 764 mg/mL. Besides, the “Solubility in water compared to existing calcium salt (in words)” value in data set [4] is “greatly enhanced in the solubility in water”. In addition, in data set [5], the pH was found to be 7.9. The “Insoluble salt formation (in words)” value in data set [1] is given as “do not form an insoluble salt”. In addition, the “Transmittance T % (660 nm)” value in data set [1] (setting [12]), in data set [1] (setting [6]) and in data set [1] (setting [7]) was 100% throughout.

With `CC(C)(O)CC(=O)O.N` [Example 7, ammonium HMB nonhydrate], in data set [4], the Solubility is 660 mg/mL, the “Solubility (in terms of free form)” value was determined as 577 mg/mL and the “Solubility in water compared to existing calcium salt (in words)” value is listed as “greatly enhanced in the solubility in water”. For the same compound, in data set [5], the pH came to 5.7. Further, in data set [1], the “Insoluble salt formation (in words)” value is “do not form an insoluble salt”. In data set [1] (setting [12]), the “Transmittance T % (660 nm)” value is given as 100%. In addition, the “Transmittance T % (660 nm)” value in data set [1] (setting [6]) is given as 100%. Moreover, the “Transmittance T % (660 nm)” value in data set [1] (setting [7]) came out at 100%.

Source of the values: patent US10647653B2, “Crystal of monovalent cation salt of 3-hydroxyisovaleric acid and process for producing the crystal” (KYOWA HAKKO BIO CO., LTD., priority 2015, dated 2020).
